Experiments:
[1] = tissue distribution of APG-1252 and BMS-1244 (FIG. 15); format: in vivo, CD-1 IGS mice; settings: for 48 hours
Description: The APG-1252 and BMS-1244 concentration versus time curve in different tissues in CD-1 IGS mice.

[2] = stability of APG-1252 during formulation preparation and lyophilization process (HPLC); format: physicochemical; settings: final lyophilization product compared to original drug
Description: The contents of APG-1252 and its hydrolysis product BM-1244 were measured before and after formulation preparation and lyophilization process by method described above.

[3] = test system: mantle cell lymphoma (B cell non-Hodgkin's lymphoma) cell line Mino, and Z138 and Rec; assay: cytotoxicity, CellTiter96 AQueous cell proliferation assay; format: cell-based; settings: single drug, 72 h
Description: (§1) Cells were seeded in a 96 well plate with 3000 cells per well and culture for 24 h, the appropriate amount of drug in a serial dilution manner was added to each well. After incubation for 72 h, Cell Proliferation was detected by CellTiter96™ AQueous Nonradioactive Cell Proliferation Assay Kit.

[4] = test system: erythroleukemic HEL, megakaryoblastic leukemic SET-2 and Ruxolitinib resistant HEL cell line; assay: as above; format: cell-based; settings: single drug, 72 h, HEL and SET-2 cell lines
Description: as §1

[5] = test system: small cell lung cancer (SCLC), colon, breast and acute lymphoblastic leukemia (ALL) cancer xenografts; settings: cited from earlier work

BMS-1244 relative to APG-1252 [1]	percentage of BM-1244 [2] [%]	SMILES	cytotoxicity alone [3]	cytotoxicity alone [4]	combination with chemotherapeutic agents ([5]; in vivo)	tumor regression as single agent ([5]; twice weekly or weekly dose-schedule)
less than 10%	–	Cc1c(S(C)(=O)=O)c(-c2cc(F)cc(N3CCN(c4ccc(NS(=O)(=O)c5ccc(N[C@H](CCN6CCC(C(=O)O)CC6)CSc6ccccc6)c(S(=O)(=O)C(F)(F)F)c5)cc4)CC3)c2)c(-c2ccc(Cl)cc2)n1C(C)C [BM-1244, (R)-1-(3-((4-(N-(4-(4-(3-(2-(4-chlorophenyl)-1-isopropyl-5-methyl-4-(methylsulfonyl)-1H-pyrrol-3-yl)-5-fluorophenyl)piperazin-1-yl)phenyl)sulfamoyl)-2-((trifluoromethyl)sulfonyl)phenyl)amino)-4-(phenylthio)butyl)piperidine-4-carboxylic acid]	–	–	–	–
–	0.16	Cc1c(S(C)(=O)=O)c(-c2cc(F)cc(N3CCN(c4ccc(NS(=O)(=O)c5ccc(N[C@H](CCN6CCC(C(=O)OCCCP(=O)(O)O)CC6)CSc6ccccc6)c(S(=O)(=O)C(F)(F)F)c5)cc4)CC3)c2)c(-c2ccc(Cl)cc2)n1C(C)C [APG-1252, (R)-(3-((1-(3-((4-(N-(4-(4-(3-(2-(4-chlorophenyl)-1-isopropyl-5-methyl-4-(methylsulfonyl)-1H-pyrrol-3-yl)-5-fluorophenyl)piperazin-1-yl)phenyl)sulfamoyl)-2-((trifluoromethyl)sulfonyl)phenyl)amino)-4-(phenylthio)butyl)piperidine-4-carbonyl)oxy)propyl)phosphonic acid]	similar	similar	strong synergy with the chemotherapeutic agents	complete and persistent tumor regression

From US20230025865A1, “COMPOSITIONS AND METHODS FOR […] […] OF Bcl-2 AND Bcl-xL ANTAGONISTS” (The Regents of the University of Michigan, priority 2019, published 2023)
